The target in one data set is T1, Caspase-8 (Homo sapiens, UniProt Q14790).
T1 construct: purchased Millipore
The data set can be described thus: Caspase-8 enzymatic assay (specificity). Type of data set: biochemical. On the procedure: (§1) Purified recombinant enzyme was incubated with various concentrations of inhibitor in appropriate assay buffers in the presence of increasing concentrations of inhibitor. The formation of fluorescent product was monitored in duplicate reactions and the data was fit to appropriate equations to calculate the IC50 values.
(§2) To identify small-molecule inhibitors of AEP, a high-throughput screen was designed in conjunction with the Emory Chemical Biology Discovery Center. The screen incorporated mouse kidney lysates to assay a 54,384 compound library. […] Additional structural analysis and grouping allowed the compounds to be sorted into 8 distinct backbone families. […] The specificity of the compounds was also determined using four major cysteine proteases (FIG. 2).
(§3) Caspase-3 and 8 —The enzyme was pre-incubated with inhibitor in assay buffer (100 mM HEPES pH 7.4, 0.1% CHAPS, 10% Sucrose) for 10 min at 37° C. The reaction was initiated upon addition of 25 μM substrate (Ac-Asp-Glu-Val-Asp-AMC (Bachem)).

The target of another data set is T2, Cathepsin-S (Homo sapiens, UniProt P25774).
T2 construct: purchased Athens Research and Technology
As to the kind of experiment: Cathepsin-S enzymatic assay (specificity). The format is biochemical. On the procedure: as §1, §2
Cathepsin-S—100 nM enzyme was pre-incubated with inhibitor in assay buffer (100 mM NaH2PO4 pH 6.5, 100 mM NaCl) for 10 min at 37° C. The reaction was initiated upon addition of 25 μM substrate (Boc-Val-Leu-Lys-AMC (Bachem)).

The next data set concerns HepG2 cells. As to the kind of experiment: COMET assay and micronucleus assay (genotoxicity). The format is cell-based, human. To be noted: 50 μM, 24 hr. On the procedure:
A. MTT assay, in which 50 μM of each compound was incubated with HepG2 cells for 24 hrs. The compound-containing medium was removed and the cells were incubated with MTT solution for 3 hrs. Subsequently, the MTT solution was replaced with DMSO and the 0D570 was observed. B. LDH assay, in which 50 μM of each compound was incubated with primary culture neurons for 48 hrs. The media was then collected and incubated with LDH assay substrate for 30 min at room temp, in the dark. After the reactions were quenched, the 0D490 was observed. C. COMET assay results; 50 μM compound was incubated with HepG2 cells for 24 hrs. The cells were then added low-melt agarose and plated on microscope slides. The cells were lysed and the DNA was denatured and subject to electrophoresis. Finally, the DNA was stained with SYBR Green and 100 nuclei were counted for each sample, in each experiment; the experiment was performed in triplicate. […] Cells were fixed and nuclei were stained with DAPI and 1,000 cells were counted per sample; three independent experiments were performed.
In an effort to characterize the toxicity of the compounds, an MTT assay was performed using human hepatocellular carcinoma, HepG2 cells and primary culture neurons to monitor the cell viability. […] The cytotoxicity of the compounds in primary neuronal cultures was determined using an LDH assay to measure cytolysis (FIG. 4B). […]

The target of another data set is T3, Caspase-3 (Homo sapiens, UniProt P42574).
T3 construct: purchased Millipore
The data set can be described thus: Caspase-3 enzymatic assay (specificity). The format is biochemical. On the procedure:
as §1, §2, §3

The target of the next data set is Cathepsin-L (Homo sapiens, UniProt P07711). As to the kind of experiment: Cathepsin-L enzymatic assay (specificity). The format is biochemical. On the procedure: as §1, §2
Cathepsin-L—100 nM enzyme was pre-incubated with inhibitor in assay buffer (100 mM Sodium Acetate pH 5.5, 1 mM EDTA) for 10 min at 37° C. The reaction was initiated upon addition of 25 μM substrate (D-Val-Leu-Lys-AMC (Bachem)).

Each structure is given as a SMILES string.

What is called IC50 is the concentration that gives 50% inhibition.

T1 sequence (Q14790 217-374 limits assumed, species assumed): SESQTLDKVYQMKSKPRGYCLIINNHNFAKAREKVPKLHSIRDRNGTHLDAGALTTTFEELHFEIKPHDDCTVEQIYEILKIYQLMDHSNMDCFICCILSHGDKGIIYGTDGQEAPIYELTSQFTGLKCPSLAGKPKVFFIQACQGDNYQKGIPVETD
T1 sequence (Q14790 385-479 limits assumed, species assumed): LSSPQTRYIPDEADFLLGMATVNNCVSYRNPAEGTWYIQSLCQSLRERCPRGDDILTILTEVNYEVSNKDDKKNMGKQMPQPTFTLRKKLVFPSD
T3 sequence (P42574 29-175 limits assumed, species assumed): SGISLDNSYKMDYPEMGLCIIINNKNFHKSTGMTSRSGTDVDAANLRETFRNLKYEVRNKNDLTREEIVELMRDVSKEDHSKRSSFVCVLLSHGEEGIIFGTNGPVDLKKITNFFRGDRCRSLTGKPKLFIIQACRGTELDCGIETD
T3 sequence (P42574 176-277 limits assumed, species assumed): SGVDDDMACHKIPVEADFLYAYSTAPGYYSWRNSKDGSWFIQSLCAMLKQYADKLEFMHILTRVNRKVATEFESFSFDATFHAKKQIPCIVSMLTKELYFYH
T2 sequence (P25774 115-331): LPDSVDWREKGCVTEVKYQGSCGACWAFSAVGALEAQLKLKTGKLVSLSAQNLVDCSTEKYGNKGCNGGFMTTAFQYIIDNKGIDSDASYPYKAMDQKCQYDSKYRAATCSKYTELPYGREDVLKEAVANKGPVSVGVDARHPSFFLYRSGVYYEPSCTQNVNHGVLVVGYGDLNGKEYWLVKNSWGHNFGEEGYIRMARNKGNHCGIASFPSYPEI
Sequence of Cathepsin-L (P07711 114-333, species assumed): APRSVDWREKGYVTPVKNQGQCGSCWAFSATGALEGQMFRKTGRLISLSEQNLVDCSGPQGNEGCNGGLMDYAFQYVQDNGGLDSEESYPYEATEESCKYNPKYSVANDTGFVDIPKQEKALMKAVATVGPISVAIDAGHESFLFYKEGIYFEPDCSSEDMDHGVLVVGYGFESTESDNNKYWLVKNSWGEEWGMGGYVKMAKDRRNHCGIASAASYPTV

Consider `CN(C)c1ccc(N2C(=O)C=CC2=O)cc1` [Compound 22], for which the half-inhibitory concentration (IC50) on Caspase-8, on Cathepsin-S, against Caspase-3 and at Cathepsin-L was greater than 100 µM throughout. Besides, the “genotoxicity (COMET and micronucleus assays)” value in the data set on HepG2 cells is “the only test compound to show genotoxicity”.

(Values after patent US20170029388A1, “Treatment of Neurodegenerative Diseases with Asparagine Endopeptidase (AEP) Inhibitors and Compositions Related Thereto” (INTERCONTINENTAL GREAT BRANDS LLC, priority 2014, published 2017).)
